This note sets out measurements from US9586907B2, “Isothiocyanate compounds, pharmaceutical compositions, and uses thereof” (priority 2006, dated 2017).

The subject of test [1] is clinical isolates of bacteria and fungus (including yeasts). In words: General antimicrobial activity, semi-quantitative score on collection of clinical isolates. For General antimicrobial activity: key: −: indicating no activity; +++++: indicating highest activity. To be noted: for antimicrobial / growth-inhibitory activity (in words): Table 1 screen. The test is classed as cell-based. The method, then:
The growth inhibitory effect of a number of various ITC compounds were tested on large collection of clinical isolates of bacteria and fungus (including yeasts), in order to establish a systematic structure-activity relationship for the ITC compounds. […] To assess the average activity for an individual ITC compound, the semi-quantitative score was calculated for each compound based on the number of sensitive bacterial strains at concentrations of 100 and 200 μM.

The test system of test [2] is M. cansassi. Briefly: MIC, M. cansassi. The test is classed as cell-based.
Test [3] deals with M. tuberculosis AB. Briefly: MIC, M. tuberculosis AB. Type of test: cell-based. On the procedure:
(§1) Next, several of the bifunctional ITC compounds were tested for their ability to inhibit the growth of some clinical isolates of Mycobacteria, the results of which are summarized in Table 3 below.

Test [4] deals with M. tuberculosis P. In words: MIC, M. tuberculosis P. Type of test: cell-based. On the procedure:
as §1

Test [5] has as its system M. tuberculosis 210. In words: MIC, M. tuberculosis 210. Type of test: cell-based. On the procedure: as §1
Test [6] deals with M. avium. In words: MIC, M. avium. The test is classed as cell-based.
Test [7] deals with M. tuberculosis CDC1551. In words: MIC, M. tuberculosis CDC1551. Type of test: cell-based. On the procedure: as §1
Test [8] concerns M. tuberculosis H37Rv. In words: MIC, M. tuberculosis H37Rv. Type of test: cell-based. The method, then: as §1
In test [9] the test system is M. intracellularie. In words: MIC, M. intracellularie. The test is classed as cell-based.
Test [10] has as its system M. fortuitum. In words: MIC, M. fortuitum. Type of test: cell-based.
The subject of test [11] is M. scrofulaceum. Briefly: MIC, M. scrofulaceum. The test is classed as cell-based.
Test [12] concerns M. tuberculosis W4. In words: MIC, M. tuberculosis W4. The test is classed as cell-based. On the procedure: as §1
Test [13] deals with M. bovis BCG. In words: microbe, parasite or virus in culture. The test is classed as cell-based.
Test [14] has as its system M. tuberculosis W. Briefly: MIC, M. tuberculosis W. Type of test: cell-based. The method, then:
as §1

Test [15] deals with Acinetobacter sp., BK12787. In words: MIC, Acinetobacter sp., BK12787. To be noted: Acinetobacter sp., BK12787; Gram −; 24 hours of incubation.
Test [16] has as its system Bacillus subtilis BK11590. Briefly: MIC, Bacillus subtilis BK11590. The test is classed as cell-based. As to conditions: Gram +, 24 hours of incubation.
For test [17], the system named is Serattia marcescens BK12421. Briefly: MIC, Serattia marcescens BK12421. To be noted: Serattia marcescens BK12421; Gram −; 24 hours of incubation.
Test [18] has as its system Klebsiella pneumonii BK12260. Briefly: MIC, Klebsiella pneumonii BK12260. As to conditions: Klebsiella pneumonii BK12260; Gram −; 24 hours of incubation.
The subject of test [19] is Pseudomonas aeruginosa BK12348. Briefly: MIC, Pseudomonas aeruginosa BK12348. To be noted: Pseudomonas aeruginosa BK12348; Gram −; 24 hours of incubation.
Test [20] concerns Acinetobacter sp., BK12786. In words: MIC, Acinetobacter sp., BK12786. As to conditions: Acinetobacter sp., BK12786; Gram −; 24 hours of incubation.
In test [21] the test system is Enterococcus sp., BK11940. Briefly: MIC, Enterococcus sp., BK11940. To be noted: Enterococcus sp., BK11940; Gram +; 24 hours of incubation.
Test [22] deals with MRSA (Staphylococcus aureus) BK12060. In words: MIC, MRSA BK12060. As to conditions: MRSA BK12060; Gram +; 24 hours of incubation.
Test [23] concerns Escherichia coli K12. In words: MIC, Escherichia coli K12. As to conditions: Escherichia coli K12; Gram −; 24 hours of incubation.
Test [24] has as its system MRSA (Staphylococcus aureus) BK12064. In words: MIC, MRSA BK12064. To be noted: MRSA BK12064; Gram +; 24 hours of incubation.
Test [25] relates to Bacillus cereus 4342. In words: MIC, Bacillus cereus 4342. To be noted: Bacillus cereus 4342; Gram +; 24 hours of incubation.
Test [26] concerns Escherichia coli BK12336. Briefly: MIC, Escherichia coli BK12336. To be noted: Escherichia coli BK12336; Gram −; 24 hours of incubation.
Test [27] deals with Shigella sp., BK 12440. Briefly: MIC, Shigella sp., BK 12440. Type of test: cell-based. To be noted: Gram −, 24 hours of incubation.
Test [28] concerns Serattia marcescens BK12426. Briefly: MIC, Serattia marcescens BK12426. As to conditions: Serattia marcescens BK12426; Gram −; 24 hours of incubation.
Test [29] relates to Shigella sp., BK 12441. Briefly: MIC, Shigella sp., BK 12441. The test is classed as cell-based. As to conditions: Gram −, 24 hours of incubation.
In test [30] the test system is Enterobacter cloacii BK12315. In words: MIC, Enterobacter cloacii BK12315. As to conditions: Enterobacter cloacii BK12315; Gram −; 24 hours of incubation.
The test system of test [31] is Staphylococcus epidermidis BK12799. Briefly: MIC, Staphylococcus epidermidis BK12799. To be noted: Staphylococcus epidermidis BK12799; Gram +; 24 hours of incubation.
In test [32] the test system is Enterococcus sp., BK11936. In words: MIC, Enterococcus sp., BK11936. As to conditions: Enterococcus sp., BK11936; Gram +; 24 hours of incubation.
For test [33], the system named is Staphylococcus epidermidis BK12798. Briefly: MIC, Staphylococcus epidermidis BK12798. To be noted: Staphylococcus epidermidis BK12798; Gram +; 24 hours of incubation.
Test [34] concerns Pseudomonas aeruginosa BK12347. Briefly: MIC, Pseudomonas aeruginosa BK12347. To be noted: Pseudomonas aeruginosa BK12347; Gram −; 24 hours of incubation.
Test [35] concerns Enterobacter cloacii BK12313. Briefly: MIC, Enterobacter cloacii BK12313. To be noted: Enterobacter cloacii BK12313; Gram −; 24 hours of incubation.
Test [36] has as its system Klebsiella pneumonii BK12261. Briefly: MIC, Klebsiella pneumonii BK12261. To be noted: Klebsiella pneumonii BK12261; Gram −; 24 hours of incubation.
Test [37] has as its system Aspergillus fumigatus Rit 21. Briefly: Anti-fungal MIC, Aspergillus fumigatus Rit 21. To be noted: Aspergillus fumigatus, RIT21, read-out: Anti-Fungal Activity (MIC).
The subject of test [38] is Aspergillus fumigatus Rit 11. In words: Anti-fungal MIC, Aspergillus fumigatus Rit 11. As to conditions: Aspergillus fumigatus, RIT11, read-out: Anti-Fungal Activity (MIC).
The subject of test [39] is Cryptococcus neoformans CNH99. In words: Anti-fungal MIC, Cryptococcus neoformans CNH99. As to conditions: Cryptococcus neoformans, CNH99, read-out: Anti-Fungal Activity (MIC).
Test [40] relates to Aspergillus fumigatus Rit 1. In words: Anti-fungal MIC, Aspergillus fumigatus Rit 1. As to conditions: Aspergillus fumigatus, RIT1, read-out: Anti-Fungal Activity (MIC).
Test [41] relates to Candida albicans 90030. In words: Anti-fungal MIC, Candida albicans 90030. To be noted: Candida albicans, 90030, read-out: Anti-Fungal Activity (MIC).
Test [42] deals with Candida dlabrata 250^mdr. In words: Anti-fungal MIC, Candida dlabrata 250^mdr. To be noted: Candida, read-out: Anti-Fungal Activity (MIC).
The test system of test [43] is Candida parapsilosis 22019. In words: Anti-fungal MIC, Candida parapsilosis 22019. As to conditions: 22019, read-out: Anti-Fungal Activity (MIC).
Test [44] concerns Candida crusei 6258^mdr. In words: microbe, parasite or virus in culture. To be noted: read-out: Anti-Fungal Activity (MIC).
Test [45] concerns Candida albicans 90028. In words: Anti-fungal MIC, Candida albicans 90028. As to conditions: Candida albicans, 90028, read-out: Anti-Fungal Activity (MIC).
The subject of test [46] is Candida albicans 5108^mdr. In words: Anti-fungal MIC, Candida albicans 5108^mdr. To be noted: Candida albicans, read-out: Anti-Fungal Activity (MIC).
Where [47] appears, read: Mycobacterium tuberculosis, read-out: MIC.

Each structure is given as a SMILES string. ≈ marks a conversion by molar mass, not a printed value. Like-named read-outs stand apart in the source and are kept apart here. Bounds are passed on as bounds.

As to `S=C=NCC12CC3CC(CC(C3)C1)C2` [Compound 35], the “antimicrobial / growth-inhibitory activity (in words)” value in [1] was “poor growth-inhibitory activity”.
Regarding `CO[C@H]1/C=C/O[C@@]2(C)Oc3c(C)c(O)c4c(O)c(c(/C=N/N5CCN(C)CC5)c(O)c4c3C2=O)NC(=O)/C(C)=C\C=C\[C@H](C)[C@H](O)[C@@H](C)[C@@H](O)[C@@H](C)[C@H](OC(C)=O)[C@@H]1C` [Rif, Rifampicin, reference compound], the MIC was 0.5 µg/mL (≈ 0.608 µM) in test [2]; 0.5 µg/mL (≈ 0.608 µM) in [3] (setting [47]); > 4 µg/mL in test [4] (setting [47]); 0.5 µg/mL (≈ 0.608 µM) in [5] (setting [47]); 0.5 µg/mL (≈ 0.608 µM) in test [6] (Mycobacterium avium); 0.5 µg/mL (≈ 0.608 µM) in [7] (setting [47]). Moreover, the MIC in test [8] (setting [47]) is 0.5 µg/mL (≈ 0.608 µM); in [9] it was 0.5 µg/mL (≈ 0.608 µM); in test [10] (Mycolicibacterium fortuitum), > 4 µg/mL; in test [11] (Mycobacterium scrofulaceum), 0.5 µg/mL (≈ 0.608 µM); in test [12] (setting [47]) it was 0.5 µg/mL (≈ 0.608 µM); in test [13] (Mycobacterium tuberculosis variant bovis BCG, BCG) it was 0.5 µg/mL (≈ 0.608 µM). In addition, the MIC in [14] (setting [47]) was > 4 µg/mL.
As for `C=CCN=C=S` [Compound 22, CH2═CH2CH2—N═C═S, reference compound], in test [1], the “antimicrobial / growth-inhibitory activity (in words)” value was “very little activity”.
Turning to `O=C(O)c1cc(N=C=S)ccc1-c1c2ccc(O)cc2cc2cc(O)ccc12` [Compound 14, reference compound], in test [1], the “antimicrobial / growth-inhibitory activity (in words)” value is given as “poor growth-inhibitory activity”.
With `CCCCN=C=S` [Compound 7, CH3CH2CH2CH2—N═C═S, reference compound], the “antimicrobial / growth-inhibitory activity (in words)” value in test [1] is listed as “very little activity”.
With `OCCCCCCCN=C=S` [Compound 44, HO—(CH2)7—N═C═S], the MIC in [15] is 64 µg/mL (≈ 369 µM); in [16], 4 µg/mL (≈ 23.1 µM); in test [17], >64 µg/mL; in test [18], >64 µg/mL; in [19] it was >64 µg/mL; in test [20] it was 64 µg/mL (≈ 369 µM). Moreover, the MIC is 32 µg/mL (≈ 185 µM) in test [21]; 8 µg/mL (≈ 46.2 µM) in test [22]; >64 µg/mL in [23]; 16 µg/mL (≈ 92.3 µM) in test [24]; 8 µg/mL (≈ 46.2 µM) in test [25]; >64 µg/mL in [26]. Also, the MIC in [27] was 64 µg/mL (≈ 369 µM); in test [28], >64 µg/mL; in [29], 64 µg/mL (≈ 369 µM); in test [30], >64 µg/mL; in test [31] it was 8 µg/mL (≈ 46.2 µM); in test [32], 32 µg/mL (≈ 185 µM). Moreover, the MIC was 8 µg/mL (≈ 46.2 µM) in test [33], >64 µg/mL in test [34], >64 µg/mL in [35] and >64 µg/mL in test [36].
In the case of `OC(Cn1cncn1)(Cn1cncn1)c1ccc(F)cc1F` [Fluc, Fluconazol, reference compound], the MIC in [37] is > 64 µg/mL; in test [38] it was > 64 µg/mL; in [39] it was 4 µg/mL (≈ 13.1 µM); in test [40] it was > 64 µg/mL; in test [41] it was 4 µg/mL (≈ 13.1 µM); in [42] it was > 64 µg/mL. For the same compound, the MIC is 2 µg/mL (≈ 6.53 µM) in test [43], 32 µg/mL (≈ 104 µM) in test [44], 0.25 µg/mL (≈ 0.816 µM) in test [45] and 32 µg/mL (≈ 104 µM) in test [46].
Take `S=C=NCCCCCCN=C=S` [Compound 40, S═C═N—(CH2)6—N═C═S]: the MIC was determined as 8 µg/mL (≈ 39.9 µM) in test [2] (M. cansassi); 4 µg/mL (≈ 20 µM) in test [3]; 2 µg/mL (≈ 9.98 µM) in [4]; 2 µg/mL (≈ 9.98 µM) in test [5]; 32 µg/mL (≈ 160 µM) in [6] (M. avium); 4 µg/mL (≈ 20 µM) in [7]. For the same compound, the MIC stood at 2 µg/mL (≈ 9.98 µM) in test [8]; 32 µg/mL (≈ 160 µM) in test [9] (M. intracellularie); 16 µg/mL (≈ 79.9 µM) in [10] (M. fortuitum); 32 µg/mL (≈ 160 µM) in [11] (M. scrofulaceum); 2 µg/mL (≈ 9.98 µM) in test [12]; 2 µg/mL (≈ 9.98 µM) in test [13]. In [14], the MIC came out at 0.5 µg/mL (≈ 2.5 µM).
For `CN=C=S` [Compound 8, CH3—N═C═S, reference compound], the “antimicrobial / growth-inhibitory activity (in words)” value in test [1] is on record as “very little activity”.
In the case of `O=C=NCc1ccccc1` [Compound 23, reference compound], the “antimicrobial / growth-inhibitory activity (in words)” value in test [1] is “Neither of the chemically related derivatives—isocyanate (Compound 23) or thiocyanate (Compound 25)—displayed any activity”. Further, the General antimicrobial activity result in test [1] (semi-quantitative score from number of sensitive bacterial strains at 100 and 200 μM, deduced from number of sensitive bacterial species and average MIC) was “−”.
